Assay results published in ChEMBL document CHEMBL5034031, “Discovery of Next-Generation Tropomyosin Receptor Kinase Inhibitors for Combating Multiple Resistance Associated with Protein Mutation” (J Med Chem, 2021).

Assays:
BaF3 [1] = experiment: animal or person; assay type: functional; conditions: Mus musculus, BaF3, po; dose 100 mg/kg; time 12-14 day; read-out: TGI
[2] = biological target: High affinity nerve growth factor receptor (Homo sapiens, UniProt P04629); experiment: Inhibition of TRKA (unknown origin) at 1 uM relative to control
[3] = AUC(0 to infinity) in Beagle dog at 1 mg/kg, iv measured upto 24 hrs by LC-MS/MS analysis; assay type: ADME, organism-based, Canis lupus familiaris; design: route intravenous, dose 1 mg/kg, time <=24; conditions: in vivo
[4] = biological target: Focal adhesion kinase 1 (Homo sapiens) (UniProt Q05397); experiment: Inhibition of FAK (unknown origin) at 1 uM relative to control
[5] = Oral bioavailability in Sprague-Dawley rat at 5 mg/kg measured upto 24 hrs by LC-MS/MS analysis; assay type: ADME, organism-based; conditions: in vivo
[6] = biological target: Dual specificity protein kinase CLK2 (Homo sapiens) (UniProt P49760); experiment: Inhibition of CLK2 (unknown origin) at 1 uM relative to control
[7] = Oral bioavailability in Beagle dog at 5 mg/kg measured upto 24 hrs by LC-MS/MS analysis; assay type: ADME, organism-based, Canis lupus familiaris; conditions: in vivo
[8] = biological target: Homeodomain-interacting protein kinase 1 (Homo sapiens) (UniProt Q86Z02); experiment: Inhibition of HIPK1 (unknown origin) at 1 uM relative to control
[9] = Clearance in Sprague-Dawley rat at 5 mg/kg, ig measured upto 24 hrs by LC-MS/MS analysis; assay type: ADME, organism-based; conditions: in vivo, po
[10] = biological target: RAC-alpha serine/threonine-protein kinase (Homo sapiens) (UniProt P31749); experiment: Inhibition of AKT1 (unknown origin) at 1 uM relative to control
[11] = Volume of distribution in Beagle dog at 1 mg/kg, iv measured upto 24 hrs by LC-MS/MS analysis; assay type: ADME, organism-based, Canis lupus familiaris; conditions: in vivo, read-out: Vz
[12] = biological target: Rho-associated protein kinase 1 (Homo sapiens) (UniProt Q13464); experiment: Inhibition of ROCK1 (unknown origin) at 1 uM relative to control
[13] = biological target: Proto-oncogene tyrosine-protein kinase Src (Homo sapiens) (UniProt P12931); experiment: Inhibition of SRC (unknown origin) at 1 uM relative to control
[14] = AUC(0 to infinity) in Sprague-Dawley rat at 5 mg/kg, ig measured upto 24 hrs by LC-MS/MS analysis; assay type: ADME, organism-based; design: route […], dose 5 mg/kg, time <=24; conditions: in vivo, po
[15] = Toxicity in BALB/c mouse xenografted with mouse BAF3 cells harboring ETV6 fused TRKC G623R mutant assessed as body weight loss at 15 to 30 mg/kg, po administered twice daily for 12 to 14 consecutive days; assay type: organism-based; conditions: in vivo, dose lower 15 mg/kg, time lower 12 day, dose upper 30 mg/kg, time upper 14 day
[16] = biological target: Inhibitor of nuclear factor kappa-B kinase subunit beta (Homo sapiens) (UniProt O14920); experiment: Inhibition of IKBKB (unknown origin) at 1 uM relative to control
BaF3 [17] = experiment: Antiproliferative activity against mouse BaF3 cells transfected with ETV6-wild type TRKB assessed as cell viability incubated for 72 hrs by CCK8 assay; assay type: functional, cell-based; conditions: BaF3, 72 h
[18] = biological target: SRSF protein kinase 1 (Homo sapiens) (UniProt Q96SB4); experiment: Inhibition of SRPK1 (unknown origin) at 1 uM relative to control
[19] = biological target: Maternal embryonic leucine zipper kinase (Homo sapiens) (UniProt Q14680); experiment: Inhibition of MELK (unknown origin) at 1 uM relative to control
[20] = biological target: [Pyruvate dehydrogenase (acetyl-transferring)] kinase isozyme 1, mitochondrial (Homo sapiens) (UniProt Q15118); experiment: Inhibition of PDK1 (unknown origin) at 1 uM relative to control
[21] = biological target: Insulin-like growth factor 1 receptor (Homo sapiens) (UniProt P08069); experiment: Inhibition of IGF1R (unknown origin) at 1 uM relative to control
BaF3 [22] = experiment: Antitumor activity against mouse BAF3 cells harboring TMP3 fused TRKA G595R mutant xenografted in BALB/c nude mouse assessed as tumor growth inhibition at 30 mg/kg, po administered twice daily for 12 to […] consecutive days; assay type: functional; conditions: time 12-14 day, read-out: TGI
BaF3 [23] = experiment: Antiproliferative activity against mouse BAF3 cells transfected with LMNA-TRKA G595R mutant assessed as cell viability incubated for 72 hrs by CCK8 assay; assay type: functional, cell-based; conditions: BaF3, 72 h
[24] = biological target: Serine/threonine-protein kinase Chk1 (Homo sapiens) (UniProt O14757); experiment: Inhibition of CHK1 (unknown origin) at 1 uM relative to control
[25] = biological target: PAS domain-containing serine/threonine-protein kinase (Homo sapiens) (UniProt Q96RG2); experiment: Inhibition of PASK (unknown origin) at 1 uM relative to control
[26] = AUC(0 to infinity) in Beagle dog at 5 mg/kg, ig measured upto 24 hrs by LC-MS/MS analysis; assay type: ADME, organism-based, Canis lupus familiaris; design: route […], dose 5 mg/kg, time <=24; conditions: in vivo, po
[27] = biological target: NT-3 growth factor receptor (Homo sapiens, UniProt Q16288, G623R)
[28] = Toxicity in BALB/c mouse xenografted with mouse BAF3 cells harboring ETV6 fused TRKC G623R mutant assessed as mortality at 15 to 30 mg/kg, po administered twice daily for 12 to […] consecutive days; assay type: organism-based; conditions: in vivo, dose lower 15 mg/kg, time lower 12 day, dose upper 30 mg/kg, time upper 14 day
[29] = biological target: Serine/threonine-protein kinase Nek6 (Homo sapiens) (UniProt Q9HC98); experiment: Inhibition of NEK6 (unknown origin) at 1 uM relative to control
[30] = biological target: Tyrosine-protein kinase receptor UFO (Homo sapiens) (UniProt P30530); experiment: Inhibition of AXL (unknown origin) at 1 uM relative to control
[31] = biological target: Vascular endothelial growth factor receptor 1 (Homo sapiens) (UniProt P17948); experiment: Inhibition of FLT1 (unknown origin) at 1 uM relative to control
[32] = Toxicity in BALB/c nude mouse xenografted with mouse BAF3 cells harboring TMP3 fused TRKA G595R mutant assessed as body weight loss at 30 mg/kg, po administered twice daily for 12 to 14 consecutive days; assay type: organism-based; conditions: in vivo, time 12-14 day
[33] = Cmax in Beagle dog at 5 mg/kg, ig measured upto 24 hrs by LC-MS/MS analysis; assay type: ADME, organism-based, Canis lupus familiaris; design: route […], dose 5 mg/kg, time <=24; conditions: in vivo, po
BaF3 [34] = experiment: Antiproliferative activity against mouse BaF3 cells transfected with ETV6-wild type TRKC assessed as cell viability incubated for 72 hrs by CCK8 assay; assay type: functional, cell-based; conditions: BaF3, 72 h
[35] = Plasma protein binding in human; assay type: ADME, cell-free; conditions: read-out: PPB (converted)
[36] = biological target: High affinity nerve growth factor receptor (Homo sapiens, UniProt P04629, G595R)
[37] = Plasma protein binding in rat; assay type: ADME, cell-free; conditions: read-out: PPB (converted)

Focal adhesion kinase 1 (Homo sapiens), sequence (Q05397 2-1052 limits assumed): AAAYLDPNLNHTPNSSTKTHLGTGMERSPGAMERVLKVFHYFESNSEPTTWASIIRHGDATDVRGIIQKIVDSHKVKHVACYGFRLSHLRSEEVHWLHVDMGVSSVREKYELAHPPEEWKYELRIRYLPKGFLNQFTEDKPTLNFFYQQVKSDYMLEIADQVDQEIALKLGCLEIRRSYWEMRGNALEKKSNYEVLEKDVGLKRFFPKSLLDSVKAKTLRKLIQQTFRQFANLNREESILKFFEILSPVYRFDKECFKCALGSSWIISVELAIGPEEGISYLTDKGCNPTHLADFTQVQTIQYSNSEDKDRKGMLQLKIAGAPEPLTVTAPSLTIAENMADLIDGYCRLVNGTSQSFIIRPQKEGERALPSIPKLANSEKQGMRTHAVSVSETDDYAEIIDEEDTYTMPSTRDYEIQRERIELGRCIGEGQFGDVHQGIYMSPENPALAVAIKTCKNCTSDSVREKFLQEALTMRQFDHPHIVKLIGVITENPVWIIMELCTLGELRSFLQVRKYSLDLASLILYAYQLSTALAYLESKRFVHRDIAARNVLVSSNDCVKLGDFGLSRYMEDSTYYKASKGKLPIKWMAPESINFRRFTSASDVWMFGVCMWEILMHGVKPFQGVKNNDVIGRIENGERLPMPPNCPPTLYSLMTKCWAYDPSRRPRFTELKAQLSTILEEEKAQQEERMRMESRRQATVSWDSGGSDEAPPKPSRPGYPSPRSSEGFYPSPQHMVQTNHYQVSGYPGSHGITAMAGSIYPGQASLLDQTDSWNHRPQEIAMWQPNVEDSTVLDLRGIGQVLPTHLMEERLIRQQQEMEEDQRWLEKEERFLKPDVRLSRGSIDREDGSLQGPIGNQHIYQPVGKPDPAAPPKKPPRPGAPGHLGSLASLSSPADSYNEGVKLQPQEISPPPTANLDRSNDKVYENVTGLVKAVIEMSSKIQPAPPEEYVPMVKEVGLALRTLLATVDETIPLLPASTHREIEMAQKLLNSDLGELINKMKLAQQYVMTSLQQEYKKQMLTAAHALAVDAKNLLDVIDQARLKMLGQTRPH
Tyrosine-protein kinase receptor UFO (Homo sapiens), sequence (P30530 whole entry): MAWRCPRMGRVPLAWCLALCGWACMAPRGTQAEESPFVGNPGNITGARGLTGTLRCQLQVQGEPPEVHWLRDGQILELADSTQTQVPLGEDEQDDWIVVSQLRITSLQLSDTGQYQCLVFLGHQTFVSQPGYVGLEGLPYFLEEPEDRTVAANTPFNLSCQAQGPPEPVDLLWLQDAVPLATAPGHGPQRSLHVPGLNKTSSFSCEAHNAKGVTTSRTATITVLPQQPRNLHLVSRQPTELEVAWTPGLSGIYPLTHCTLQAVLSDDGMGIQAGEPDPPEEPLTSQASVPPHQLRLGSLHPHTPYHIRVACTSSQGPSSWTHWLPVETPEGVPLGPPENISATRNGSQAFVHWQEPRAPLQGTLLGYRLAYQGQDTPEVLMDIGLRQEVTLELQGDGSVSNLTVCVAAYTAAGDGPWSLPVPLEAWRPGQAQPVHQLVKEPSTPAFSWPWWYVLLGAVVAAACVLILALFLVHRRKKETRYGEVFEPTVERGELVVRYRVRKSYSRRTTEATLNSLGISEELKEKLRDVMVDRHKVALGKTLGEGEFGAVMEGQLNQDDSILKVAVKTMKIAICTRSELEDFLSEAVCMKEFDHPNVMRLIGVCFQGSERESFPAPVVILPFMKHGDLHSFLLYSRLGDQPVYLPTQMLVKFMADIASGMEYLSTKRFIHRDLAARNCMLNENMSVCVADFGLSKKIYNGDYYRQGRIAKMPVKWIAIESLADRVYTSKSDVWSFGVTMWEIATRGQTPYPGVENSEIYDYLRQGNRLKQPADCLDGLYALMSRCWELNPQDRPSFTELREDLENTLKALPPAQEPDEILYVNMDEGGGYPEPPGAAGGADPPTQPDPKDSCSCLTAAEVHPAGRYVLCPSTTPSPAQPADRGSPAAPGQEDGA
Proto-oncogene tyrosine-protein kinase Src (Homo sapiens), sequence (P12931 2-536 limits assumed): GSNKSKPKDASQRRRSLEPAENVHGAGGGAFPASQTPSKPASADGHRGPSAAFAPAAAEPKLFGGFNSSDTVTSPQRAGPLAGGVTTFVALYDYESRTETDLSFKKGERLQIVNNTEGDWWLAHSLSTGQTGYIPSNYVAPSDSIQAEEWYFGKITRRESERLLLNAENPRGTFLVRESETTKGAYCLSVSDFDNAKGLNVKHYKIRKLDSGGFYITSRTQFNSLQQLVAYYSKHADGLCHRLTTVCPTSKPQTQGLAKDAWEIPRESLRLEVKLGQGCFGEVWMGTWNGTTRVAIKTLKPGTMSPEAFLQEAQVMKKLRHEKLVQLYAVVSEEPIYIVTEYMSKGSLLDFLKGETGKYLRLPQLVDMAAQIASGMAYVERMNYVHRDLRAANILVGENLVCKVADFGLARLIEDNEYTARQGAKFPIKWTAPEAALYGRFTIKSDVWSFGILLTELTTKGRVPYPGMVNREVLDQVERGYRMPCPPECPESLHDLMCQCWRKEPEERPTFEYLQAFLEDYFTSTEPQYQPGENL
PAS domain-containing serine/threonine-protein kinase (Homo sapiens), sequence (Q96RG2 whole entry, the tested form may be a part): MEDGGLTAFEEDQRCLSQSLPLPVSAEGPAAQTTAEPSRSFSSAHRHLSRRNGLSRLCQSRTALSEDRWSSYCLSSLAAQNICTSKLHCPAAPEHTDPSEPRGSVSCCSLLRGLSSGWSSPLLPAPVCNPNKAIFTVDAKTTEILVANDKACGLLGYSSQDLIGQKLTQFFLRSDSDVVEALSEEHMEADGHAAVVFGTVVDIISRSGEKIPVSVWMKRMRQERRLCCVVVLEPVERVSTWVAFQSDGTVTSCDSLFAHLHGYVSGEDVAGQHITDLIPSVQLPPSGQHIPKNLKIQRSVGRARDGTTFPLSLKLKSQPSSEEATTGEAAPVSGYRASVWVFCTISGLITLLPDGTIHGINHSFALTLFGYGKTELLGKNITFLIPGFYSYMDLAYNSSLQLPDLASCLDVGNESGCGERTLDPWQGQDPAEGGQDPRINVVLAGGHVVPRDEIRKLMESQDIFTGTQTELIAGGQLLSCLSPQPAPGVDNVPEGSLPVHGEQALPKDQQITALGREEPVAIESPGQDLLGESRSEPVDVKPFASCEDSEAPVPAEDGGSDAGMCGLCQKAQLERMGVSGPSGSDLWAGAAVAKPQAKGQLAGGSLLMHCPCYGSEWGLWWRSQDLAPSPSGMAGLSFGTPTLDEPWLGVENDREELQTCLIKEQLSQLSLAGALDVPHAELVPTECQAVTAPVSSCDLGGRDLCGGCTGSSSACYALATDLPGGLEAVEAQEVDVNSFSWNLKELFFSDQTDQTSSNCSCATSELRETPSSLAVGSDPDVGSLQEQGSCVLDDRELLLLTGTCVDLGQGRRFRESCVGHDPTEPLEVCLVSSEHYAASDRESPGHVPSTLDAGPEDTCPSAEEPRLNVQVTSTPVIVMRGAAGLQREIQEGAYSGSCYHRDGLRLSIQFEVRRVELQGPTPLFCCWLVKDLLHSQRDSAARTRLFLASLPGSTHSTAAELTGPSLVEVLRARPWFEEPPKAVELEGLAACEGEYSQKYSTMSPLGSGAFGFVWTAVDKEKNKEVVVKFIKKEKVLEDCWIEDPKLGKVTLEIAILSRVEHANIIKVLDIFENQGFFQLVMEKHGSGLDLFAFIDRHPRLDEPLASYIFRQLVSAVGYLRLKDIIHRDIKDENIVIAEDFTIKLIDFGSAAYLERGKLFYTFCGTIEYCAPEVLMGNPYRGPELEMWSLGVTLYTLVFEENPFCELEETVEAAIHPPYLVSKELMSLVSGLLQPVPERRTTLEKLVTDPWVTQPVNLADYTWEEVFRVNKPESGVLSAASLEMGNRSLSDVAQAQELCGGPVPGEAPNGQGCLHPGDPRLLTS
Dual specificity protein kinase CLK2 (Homo sapiens), sequence (P49760 whole entry, looked up): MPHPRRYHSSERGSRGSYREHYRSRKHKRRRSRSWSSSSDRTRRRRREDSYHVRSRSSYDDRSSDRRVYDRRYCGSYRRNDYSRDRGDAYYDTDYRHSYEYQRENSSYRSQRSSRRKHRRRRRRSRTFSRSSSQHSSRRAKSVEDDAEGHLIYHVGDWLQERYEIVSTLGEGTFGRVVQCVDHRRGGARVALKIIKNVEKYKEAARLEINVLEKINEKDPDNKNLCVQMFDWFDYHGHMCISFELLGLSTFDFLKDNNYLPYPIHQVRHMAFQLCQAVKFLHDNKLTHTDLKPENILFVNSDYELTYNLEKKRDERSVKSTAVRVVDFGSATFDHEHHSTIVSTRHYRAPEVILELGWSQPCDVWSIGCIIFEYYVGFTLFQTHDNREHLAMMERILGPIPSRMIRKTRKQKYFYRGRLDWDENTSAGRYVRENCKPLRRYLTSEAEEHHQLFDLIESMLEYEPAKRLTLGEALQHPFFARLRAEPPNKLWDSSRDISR
Inhibitor of nuclear factor kappa-B kinase subunit beta (Homo sapiens), sequence (O14920 whole entry): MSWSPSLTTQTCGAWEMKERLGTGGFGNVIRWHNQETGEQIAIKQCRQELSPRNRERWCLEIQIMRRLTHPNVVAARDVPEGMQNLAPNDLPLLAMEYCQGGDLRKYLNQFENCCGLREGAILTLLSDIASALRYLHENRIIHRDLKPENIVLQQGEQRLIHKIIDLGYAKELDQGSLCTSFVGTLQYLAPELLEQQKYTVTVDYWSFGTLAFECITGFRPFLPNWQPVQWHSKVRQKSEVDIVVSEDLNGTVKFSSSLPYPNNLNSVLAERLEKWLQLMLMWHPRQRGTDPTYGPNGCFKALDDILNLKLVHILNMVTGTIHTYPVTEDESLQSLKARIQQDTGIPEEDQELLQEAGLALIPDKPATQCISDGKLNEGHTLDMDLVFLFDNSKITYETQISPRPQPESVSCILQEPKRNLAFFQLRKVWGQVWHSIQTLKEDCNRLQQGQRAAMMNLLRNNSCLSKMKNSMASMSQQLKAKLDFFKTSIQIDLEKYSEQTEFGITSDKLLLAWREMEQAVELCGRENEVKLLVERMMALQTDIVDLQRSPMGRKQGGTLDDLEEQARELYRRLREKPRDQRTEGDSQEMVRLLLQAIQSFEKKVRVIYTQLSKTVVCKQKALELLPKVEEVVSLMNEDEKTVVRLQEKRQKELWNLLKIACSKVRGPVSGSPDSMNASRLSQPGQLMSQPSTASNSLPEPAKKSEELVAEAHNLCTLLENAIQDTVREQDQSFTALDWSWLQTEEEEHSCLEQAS

C[C@@H](Nc1ccn2ncc(-c3cnn(CCO)c3)c2n1)c1cc(F)ccc1OCC(F)F
inhibition in vivo at 100 mg/kg (BaF3 [1]): 99%
inhibition [2]: > 80%
AUC(0-inf) [3]: 2140 ng·h/mL
inhibition [4]: > 80%
bioavailability [5]: 49%
inhibition [6]: < 50%
bioavailability [7]: 92%
inhibition [8]: < 50%
CL/F [9]: 158 mL/min/kg
inhibition [10]: < 50%
Vd [11]: 4.94 L/kg
inhibition [12]: < 50%
inhibition [13]: < 50%
AUC(0-inf) [14]: 540 ng·h/mL
Activity [15]: Non-Toxic
inhibition [16]: < 50%
IC50 (BaF3 [17]): 0.3 nM
inhibition [18]: < 50%
inhibition [19]: < 50%
inhibition [20]: < 50%
inhibition [21]: < 50%
inhibition in vivo at 30 mg/kg (BaF3 [22]): 61%
IC50 (BaF3 [23]): 1.6 nM
inhibition [24]: < 50%
inhibition [25]: < 50%
AUC(0-inf) [26]: 9630 ng·h/mL
IC50 [27]: 0.6 nM
Activity [28]: Non-Toxic
inhibition [29]: < 50%
inhibition [30]: > 80%
inhibition [31]: < 50%
Activity [32]: Non-Toxic
Cmax [33]: 1570 ng/mL
IC50 (BaF3 [34]): 0.2 nM
fraction unbound [35]: 0.044
IC50 [36]: 0.2 nM
fraction unbound [37]: 0.121
